Data taken from US6887983B2, “Purified 20 kDA presenilin 2 C-terminal fragment and methods of screening for compounds that inhibit proteolysis of presenilin 2” (The General Hospital Corporation, priority 1997, dated 2005).
Where a SMILES comes first, the peptide text is derived from it. The star is where a group is joined. Cbz = O=C(OCc1ccccc1)*; CH2F = FC*

What was measured:
[1] = tested on: full-length 54 kDa PS2 cleavage; experiment: Cleavage of full-length PS2 during etoposide-induced apoptosis in inducible H4 cells (N-terminal FLAG PS2); format: cell-based, human; conditions: increasing concentrations of inhibitor, 20 μM etoposide; FIG. 8
Procedure: FIG. 8. Cleavage of full-length 54 kDa PS2 by a zVAD-sensitive protease activated during etoposide-induced apoptosis. Inducible H4 cells expressing PS2 containing N-terminal FLAG epitope were induced for 12 hours and further incubated with media containing 20 μM etoposide. Alternative (34 kDa NTF) and normal (f; 30 kDa) N-terminal cleavage products detected by anti-FLAG antibody and alternative (20K CTF) and endogenous plus normal C-terminal cleavage products (e/f) detected by αPS2Loop were indicated by arrows.
Thus, whether the alternative PS2-CTF was generated from full-length 54 kDa PS2 during apoptosis was tested. […] The alternative NTF was 34 kDa while the “normal” NTF, labeled as band f in the top panel of FIG. 8, was 30 kDa. The alternative PS2 cleavage fragments were first observed at 3 hours post-treatment with etoposide.

[2] = tested on: generation of alternative 14 kDa PS1-CTF; experiment: Generation of alternative 14 kDa PS1-CTF in inducible H4 cells overexpressing PS1; format: cell-based, human; conditions: PS1-overexpressing cell lines
Procedure: FIG. 11. […] Inducible PS1 cells were generated similar to as described herein. High-(clone 1.22) and low-(clone 1.24) expressing clones were grown in the presence or absence of tetracycline for 24 hours. As similar to those shown for PS2, multiple PS1 CTFs were detected in the PS 1-overproducing cells, including 23 kDa endogenous PS1 CTF (arrow e′), transgene-derived normal cleavage product (arrow f′), and aberrant 14 kDa PS1 fragment. (b, c, d) Cleavage of endogenous PS1 CTF during STS-induced apoptosis. Identical samples used for FIG. 8 were stained with αPS1 Loop. PS1 CTF was further cleaved into smaller 14 kDa fragment during apoptotic process. […] Asterisk indicates non-specific bands.
The point mutations in the potential aspartate cleavage sites of PS2 (D326A and D329A) and control aspartate (D308A) were introduced into a PS2 open reading frame by site-directed mutagenesis using Muta-Gene phagemid kit (BioRad). The inducible construct encoding the full-length PS1 with 3′ FLAG epitope sequence was generated as described for PS2 herein. […]
Next, whether PS1, a closely related homologue of PS2, also undergoes alternative cleavage when overexpressed and/or during apoptosis was tested. […] However, in the clonal cell line expressing lower levels of PS1 (clone IF24), full-length PS1 and the normal CTF were predominantly detected while the alternative 14 kDa CTF fragment was not detectable.

[3] = tested on: endogenous PS1 cleavage; experiment: Apoptosis-associated cleavage of endogenous PS1 in H4 cells; format: cell-based, human; conditions: STS- or etoposide-induced, FIGS. 11c and 11d
Procedure: FIG. 11. […] Inducible PS1 cells were generated similar to as described herein. High-(clone 1.22) and low-(clone 1.24) expressing clones were grown in the presence or absence of tetracycline for 24 hours. […] Identical samples used for FIG. 8 were stained with αPS1 Loop. […] Asterisk indicates non-specific bands.
Whether endogenous PS1 is cleaved by CP32-like proteases following induction of apoptosis was also tested.

[4] = tested on: generation of the 20 kDa PS2-CTF; experiment: Generation of 20 kDa PS2-CTF in H4 cells overexpressing PS2, Western blot with αPS2Loop; conditions: FIG. 7d; for generation of the 20 kDa PS2-CTF: cells overexpressing PS2, induced 24 h, inhibitor added at induction
Procedure: Aberrant 20 kDa PS2 C-terminal fragment (CTF) in transfected cells. (a) Detection of the endogenous PS2 CTF in human brain. […] (b) Detection of multiple PS2 CTFs in the inducible H4 cells overexpressing C-terminal epitope-tagged PS2 by Western blotting using αPS2Loop. […] (c) Selective localization of the 20 kDa CTF in the non-ionic detergent-resistant cellular fraction. Wild-type PS2 cells were induced for 48 hours, fractionated into detergent-insoluble/resistant (lane 2) and detergent soluble (lane 3) fractions and wash (lane 4), and then analyzed by Western blotting with αPS2Loop. Total SDS lysates are shown in lane 1. […] The zFA-fmk (cathepsin B inhibitor) was used as a control for fluoromethylketone (fmk) group. […] Inducible PS2 were grown in the presence (Uninduced, left panel) or absence (Induced, right panel) of tetracycline for 24 hours, and inhibitors or solvent (DMSO) were added at the time of the induction.
(§2) For some experiments, protein quantitation, SDS-PAGE (4-20% or 16%) and Western blotting were carried out as described, supra, with the exception of using the lysis buffer (10 mM Tris-HCl [pH 7.4], 150 mM NaCl, 1% Triton X-100, 0.5% NP-40, 5 mM EDTA plus either 0.3% SDS or 1% Sarkosyl) with protease inhibitors, allowing for the efficient extraction of the 20 kDa C-terminal fragment from the detergent-resistant fractions.

[5] = tested on: endogenous PS2 cleavage in H4 human neuroglioma cells; experiment: Apoptotic cleavage of endogenous PS2 in untransfected H4 cells (staurosporine or etoposide), Western blot
Procedure: H4 human neuroglioma cells were treated with 1 μM STS for timed intervals indicated on the top panels and lysates were analyzed by Western blotting using αPS2Loop along with antibodies to poly(ADP-ribose) polymerase (PARP), CPP32, and HSP70. […] Cells were pre-treated with inhibitors for 1 hour, further incubated in the presence or absence of 2 μM STS (b) or 20 μM etoposide for 18 hours. and lysates were analyzed by Western blotting. […] (e) Dose-response curves of the effect of zVAD-fmk (Δ) and zDEVD-fmk (o) on STS-induced apoptotic cleavage of PS2. Relative amounts of 20 kDa PS2 fragments from the cells co-treated with 1 μM STS (18 hours) plus either zVAD-fmk or zDEVD-fmk were measured by the transmittance analysis of the Western blot as described (Bush, A. I., et al., Ann. Neurol. 32:57-65 (1992)). The amounts of 20 kDa fragment from the cells treated with STS alone were standardized as 100%. With the exception of (d) (4-20% gradient gel), all SDS-PAGE were performed using 16% gels.
as §2

[6] = tested on: polyubiquitinated PS2; experiment: Immunoprecipitation of ubiquitin-positive HMW-PS2 with anti-FLAG, anti-ubiquitin immunoblot; format: cell-based, human; conditions: 50 μM ALLN; C-terminal FLAG PS2; FIG. 5B
Procedure: (§1) FIG. 5. Polyubiquitination and proteasomal degradation of PS2. […] Detergent-soluble (Soluble) and detergent-resistant fractions (Insoluble) were prepared and analyzed by Western blotting. FIG. 5B) immunoprecipitation of ubiquitin-positive high molecular weight forms of PS2 (HMW-PS2) by anti-FLAG antibodies. […] FIG. SC) binding of PS2 modified with epitope-tagged ubiquitin (H6M-Ub) to nickel affinity columns. Plasmid pCW7 encoding wild-type (H6M-Ub) or pCW8 encoding dominant-negative ubiquitin (H6M-UbK48R) was transiently transfected into uninduced PS2 cells (clone WF2). […] Lysates were subjected to nickel affinity chromatography as described herein and bound materials were analyzed by Western blotting using anti-PS2Loop antibodies.
Protein samples were quantiated by the BCA protein assay kit (Pierce). SDS-PAGE was carried out using 4-20% gradient Tris-glycine gels under reducing conditions. Proteins were transferred to polyvinylidene difluoride membrane (Bio-Rad) using a semi-dry electrotransfer system (Hoefer). The blots were blocked with 5% non-fat dry milk in TBST (25 mM Tris (pH 7.6), 137 mM NaCl, 0.15% Tween 20) for 1.5 h, incbated primary antibodies (M2, 3 μg/ml; D-8, 1 to 1000; polyclonal anti-ubiquitin, 1 to 1000; Ubi-1, 1 to 1500) for 1.5 h, and secondary antibodies (horseradish perodixase-conjugated anti-mouse or rabbit antibodies, 1 to 5000) in TBST. […]

[7] = tested on: polyubiquitinated HMW-PS2; experiment: Nickel affinity chromatography of PS2 modified with His-tagged ubiquitin, anti-PS2Loop blot; format: cell-based, human; conditions: induced cells treated with ALLN
Procedure: as §1
PS2 cells were transiently transfected with ubiquitin constructs either pCW7 (H6M-Ub) or pCW8 (H6M-UbK48R) using LipofectAMINE™ according to the manufacturer's instruction (LifeTtechnologies, Inc.). […] Samples were concentrated by freeze-drying, and PS2 immunoreactivity was detected by Western blotting using anti-PS2Loop antibodies.
To determine whether polyubiquitinated HMW-PS2 serves as a degradation intermediate for the full-length PS2, constructs encoding wild-type (H6M-Ub) and dominant-negative ubiquitin (H6M-UbK48R), tagged with poly((6X)-histidine) were transiently transfected into uninduced cells. […]

| Molecule | generation of both alternative PS2 cleavage products [1] | generation of alternative 14 kDa PS1-CTF [2] | apoptosis-associated cleavage of endogenous PS1 [3] | apoptosis-associated cleavage of endogenous PS1 ([3]; listed as zVAD) | generation of the 20 kDa PS2-CTF [4] | generation of the 20 kDa PS2-CTF ([4]; listed as zVAD) | levels of the endogenous 25 kDa CTF, the 26 kDa transgene-derived CTF, or other PS2 species ([4]; cells overexpressing PS2) | concentration equally effective in inhibiting apoptosis-induced cleavage of PS2 ([5]; 1 μM STS 18 h, relative amount of 20 kDa fragment, FIG. 9e) [µM] | normal processing of PS2 (generation of 25 kDa endogenous fragment) ([5]; H4 cells undergoing apoptosis) | STS-induced or etoposide-induced cleavage of PS2, PARP, and pro-CPP32 ([5]; H4 cells, 2 μM STS or 20 μM etoposide 18 h, FIG. 9b, c) | alternative cleavage of endogenous PS2 during staurosporine-induced or etoposide-induced apoptosis ([5]; H4 cells, inhibitor pre-treatment 1 h, 2 μM STS or 20 μM etoposide 18 h, FIGS. 9b-9d) | Ubiquitin-positive HMW-PS2 [6] | polyubiquitinated HMW-PS2 bound to nickel column ([7]; transfected with H6M-Ub, FIG. 5C lane 10) | polyubiquitinated HMW-PS2 bound to nickel column ([7]; transfected with dominant-negative H6M-UbK48R, FIG. 5C lane 12) |
| --- | --- | --- | --- | --- | --- | --- | --- | --- | --- | --- | --- | --- | --- | --- |
| COC(=O)C[C@H](NC(=O)[C@H](C)NC(=O)[C@@H](NC(=O)OCc1ccccc1)C(C)C)C(=O)CF [zVAD-fmk] (Cbz-Val-Ala-Asp(OMe)-CH2F) | inhibited the generation of both alternative cleavage products | blocked | Inhibition of STS-induced (c) and etoposide-induced (d) PS1 cleavage | blocked | blocked | blocked the generation of the 20 kDa PS2-CTF | no effect | 25 | no effect on normal processing of PS2 | Inhibition of STS-induced (b) or etoposide-induced (c) cleavage of PS2, PARP, and pro-CPP32 | specifically blocked | – | – | – |
| N-acetyl-L-leucinal-L-norleucinal [ALLN] | – | – | – | – | – | – | – | – | – | – | – | significantly increased | abundant amounts of polyubiquitinated HMW-PS2 | a small amount of polyubiquitinated HMW-PS2 |
